Assays:
renal dysfunction = conditions: in vivo; cited from earlier work
[1] = system: kidney disease model rats; experiment: Action to depress blood pressure (tail cuff method); format: in vivo, Sprague-Dawley female rats; conditions: 20 mg/kg per os; for Blood pressure: systolic, average, two days from administration, control (water) 203
Protocol: The compounds of the present invention and the reference substance were forcedly administered per os to kidney disease model rats, and the action to depress blood pressure was observed. The kidney disease model rats were prepared by ligature of branches of renal artery in accordance with the conventional method, that is, the left hilum renalis of Sprague-Dawley female rats was exposed under anesthesia, and one of four secondary branches of renal artery was left unligated, while the remaining three branches were ligated, respectively. After a week, the hilum renalis (artery, vein, and ureter) of the right kidney were further ligated to thereby prepare the rats whose renal function was lowered to approximately 1/8 of the normal function. Each group consisted of eight rats. The drugs to be tested (20 mg/kg) were administered to each administering group, and only water was administered to control group. After two days from the administration, the systolic blood pressure was measured by the tail cuff method using a blood pressure measuring apparatus (UR5000; Ueda).

[2] = system: kidney disease model rats; experiment: Renal function indicatory value (action to kidney diseases); format: in vivo, Sprague-Dawley female rats; conditions: 20 mg/kg/day per os, two weeks; for Creatinine clearance: 24 hours urine, control 0.20; for Creatinine / Urea nitrogen: serum; for Creatinine: control 2.0; for Urea nitrogen: control 100
Protocol: The kidney disease model rats were prepared as in Example 115. Twenty-five groups (8 rats per group) were sleeked in a manner so that there were no major differences between each group in the serum creatinine value and the urea nitrogen value indicating renal function. The rats in each group were allowed to freely take up feed and water. […] To the rats in the control group, only water was forcedly administered per os every day. After two weeks, 0.2 ml of blood was collected from the carotid artery of the rat under anesthesia, and centrifuged to obtain serum. Using 25 μl of the serum, serum creatinine (Scr) was measured by a creatinine analytical instrument (Beckman). Using 10 μl of the serum, urea nitrogen (BUN) was measured by a BUN analytical instrument (Beckman). Creatinine clearance was evaluated as follows:
After serum creatinine measurement, rats were placed in urinary metabolic cages for 24 hours to collect urine. Urinary creatine concentration (Ucr) was measured by a creatinine analytical instrument, and total volume of urination (Uvol) was also measured. Creatinine clearance (CCr) was calculated by the following formula: [formula]

[3] = system: kidney disease model rats; experiment: Action to survival time of kidney diseased animals; format: in vivo, Sprague-Dawley female rats; conditions: 20 mg/kg/day per os, observation eight weeks (upper limit); control 5.0
Protocol: The kidney disease model rats were prepared as in Example 115. Twenty-five groups (8 rats per group) were prepared in a manner so that there was no major difference between the groups in the serum creatinine value and the urea nitrogen value indicating renal function. The rats in each group were allowed to freely take up feed and water. […] To the rats in the control group, only water was forcedly administered per os every day. If kidney diseases are aggravated, the rat will die of uremia. Thus, the survival time was observed as comprehensive indication of the improvement effect on the kidney diseases. The observation period was eight weeks. Thus if all rats survived, the average survival time is eight weeks and it is an upper limit.

hyperlipemia model rats = conditions: cited from earlier work
[4] = biological target: T1, angiotensin II receptor subtype 1 (AT1) (Oryctolagus cuniculus, UniProt P34976); experiment: Binding assay, angiotensin II receptor subtype 1 (AT1); set-up: species or system rabbit (adrenal glands); conditions: for inhibition at 100 µM: AT1, rabbit adrenal glands
T1 construct: receptor: from adrenal glands in rabbits; from tissue; host or cells: rabbit adrenal glands
T1 sequence (P34976 1-359): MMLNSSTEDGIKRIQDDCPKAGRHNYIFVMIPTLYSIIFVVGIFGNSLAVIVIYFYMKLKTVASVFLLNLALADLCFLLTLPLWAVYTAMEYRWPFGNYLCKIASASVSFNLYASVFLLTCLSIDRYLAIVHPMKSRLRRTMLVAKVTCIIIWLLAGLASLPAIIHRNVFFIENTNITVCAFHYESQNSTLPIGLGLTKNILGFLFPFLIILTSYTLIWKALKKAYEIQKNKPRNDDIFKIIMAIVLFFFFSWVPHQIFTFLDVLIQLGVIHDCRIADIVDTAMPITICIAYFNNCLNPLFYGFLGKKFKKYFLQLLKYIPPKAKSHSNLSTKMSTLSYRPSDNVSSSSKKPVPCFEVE
Protocol: (§1) In this Example, the affinity to the angiotensin II receptor subtype 1 or subtype 2 was evaluated by a binding assay in accordance with the method described in Biochem. Pharmacol., 33, 4057-4062 (1984).
(§2) Specifically, the measurement of the total binding in the presence of each drug was performed as follows:
(§3) A mixture (final volume=0.25 ml) of a drug in a given concentration (the drug was dissolved in DMSO, and diluted to a double volume with a buffer attached to a drug discovery system to prepare sample for the assay; 0.025 ml), a tracer (0.025 ml), and receptors (0.2 ml) was incubated [in the case of the angiotensin II receptor subtype 1 (AT1), at room temperature for 3 hours, and in the case of the subtype 2 (AT2), at 37° C. for 1 hour]. Then, the reaction mixture was filtered with suction (GF/C filter was used in AT1, and GF/B filter was used in AT2). The filter papers after filtration with suction (the tracer bound to the receptors) were counted by a γ-well counter (ARC-500, Aloka). The non-specific bindings were measured by repeating the above method, except that a large excess amount of a displacer was added. The specific binding of the drug in the given concentration was calculated by subtracting the non-specific binding from the total binding, respectively.
(§4) In AT1 and AT2, the percentages to inhibit the bindings of radioactive ligands (tracer) to receptors by the drugs to be tested (IC50 value of concentration to show 50% inhibition, or binding inhibition % in 100 μM) were measured, using the drugs to be tested and control drugs in the given concentration.

[5] = biological target: T2, angiotensin II receptor subtype 2 (AT2) (Bos taurus, UniProt G5E6F7); experiment: Binding assay, angiotensin II receptor subtype 2 (AT2); set-up: species or system bovine (cerebellar cortex); conditions: 100 μM, AT2, bovine cerebellar cortex, 37° C. 1 hour; read-out: Binding inhibition % in 100 μm, AT2
T2 construct: receptor: from cerebellar cortex in bovine; from tissue; host or cells: bovine cerebellar cortex
T2 sequence (G5E6F7 1-362): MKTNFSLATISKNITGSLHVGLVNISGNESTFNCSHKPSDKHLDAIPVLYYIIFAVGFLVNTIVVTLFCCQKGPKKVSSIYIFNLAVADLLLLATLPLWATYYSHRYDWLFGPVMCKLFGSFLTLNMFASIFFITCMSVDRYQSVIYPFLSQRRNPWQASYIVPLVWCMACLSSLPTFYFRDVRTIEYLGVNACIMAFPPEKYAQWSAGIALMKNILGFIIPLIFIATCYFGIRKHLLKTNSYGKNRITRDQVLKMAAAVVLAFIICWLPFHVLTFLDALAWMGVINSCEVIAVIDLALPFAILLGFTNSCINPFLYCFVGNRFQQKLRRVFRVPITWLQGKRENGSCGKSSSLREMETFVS
Protocol: as §1, §2, §3, §4
receptor: from cerebellar cortex in bovine
tracer: ^125 ITyr^4angiotensin II
control drug: angiotensin II (human)
(displacer): angiotensin II (human)

mice = experiment: Acute toxicity, single oral dose; format: in vivo
Protocol: Five-week-old ICR female mice (5 mice per group) were bred for acclimation for a week. Then, the compounds of the present invention were dissolved or dispersed in an aqueous solution of 0.5% methylcellulose, and orally administered to the mice in a single dosage (500 mg/kg).

[6] = mice, single oral 500 mg/kg, observed for 6 days, 5 per group

C[C@H](CS)C(=O)N1CCC[C@H]1C(=O)O [captoril]
Blood pressure (renal dysfunction): blood pressure is lowered
progress of renal dysfunction (renal dysfunction): the progress of renal dysfunction is improved

CCOC(=O)[C@H](CCc1ccccc1)N[C@@H](C)C(=O)N1CCC[C@H]1C(=O)O [enalapril]
Blood pressure (renal dysfunction): blood pressure is lowered
progress of renal dysfunction (renal dysfunction): the progress of renal dysfunction is improved

CCCCc1nc(Cl)c(CO)n1Cc1ccc(-c2ccccc2-c2nnn[nH]2)cc1 [DuP753, 2-butyl-4-chloro-5-(hydroxymethyl)-1-[[2'-(1H-tetrazol-5-yl)biphenyl-4-yl]methyl]imidazole, reference compound]
action to depress the blood pressure ([1]; in comparison with control group): clearly showed the action to depress the blood pressure
Blood pressure [1]: 135 mmHg
Creatinine clearance [2]: 0.32 mL/min
Creatinine [2]: 1.6 mg/dL
Urea nitrogen [2]: 80 mg/dL
Average survival time [3]: 6.9 weeks
Blood pressure (hyperlipemia model rats; large dose): an evident reduction of blood pressure was observed
effect to blood pressure (hyperlipemia model rats; lower dose): without practical effect to blood pressure
kidney disease improvement (hyperlipemia model rats; lower dose): the kidney disease was improved in a lower dose

CCCCC(=O)N(Cc1ccc(C(=O)O)cc1)c1cc(C(=O)N2CCOCC2)ccc1N(C)C [Compound No. 184, 3-N-[[(4-carboxyphenyl)methyl]valeramido]-4-dimethylaminobenzoic acid morpholide]
inhibition at 100 µM [4]: 0%
inhibition at 100 µM [5]: 0%
Number of deaths/number of survivals (mice; mouse, in vivo, po, 500 mg/kg): 0/5
Blood pressure [1]: 195 mmHg
Creatinine clearance [2]: 0.38 mL/min
Creatinine [2]: 1.5 mg/dL
Urea nitrogen [2]: 70 mg/dL
Average survival time [3]: 7.6 weeks

CCCCC(=O)Nc1ccc(C(=O)N2CCOCC2)cc1NCc1ccc(-c2ccccc2-c2nnn[nH]2)cc1 [Compound No. 585, 3-[[2'-(1H-tetrazol-5-yl)biphenyl-4-yl]methylamino]-4-valeramidobenzoic acid morpholide]
IC50 ([4]; tracer 3H angiotensin II, room temperature 3 hours, read-out: IC50 AT1): 1700 nM
inhibition at 100 µM [5]: 0%
Number of deaths/number of survivals (mice; [6]): 0/5
Blood pressure [1]: 196 mmHg
Creatinine clearance [2]: 0.35 mL/min
Creatinine [2]: 1.6 mg/dL
Urea nitrogen [2]: 72 mg/dL
Average survival time [3]: 7.3 weeks

CCCCC(=O)Nc1ccc(C(=O)N2CCOCC2)cc1NCc1ccc(C(=O)O)cc1 [Compound No. 1, 3-[(4-carboxyphenyl)methylamino]4-valeramidobenzoic acid morpholide]
inhibition at 100 µM [4]: 33%
inhibition at 100 µM [5]: 0%
Number of deaths/number of survivals (mice; [6]): 0/5
Blood pressure [1]: 196 mmHg
Creatinine clearance [2]: 0.34 mL/min
Creatinine [2]: 1.6 mg/dL
Urea nitrogen [2]: 75 mg/dL
Average survival time [3]: 7.1 weeks

CCCCCN(C)c1ccc(C(=O)N2CCOCC2)cc1NCc1ccc(C(=O)O)cc1 [Compound No. 41, 4-(N-n-amyl-N-methyl)amino-3-[(4-carboxyphenyl)methyl]aminobenzoic acid morpholide]
inhibition at 100 µM [4]: 26%
inhibition at 100 µM [5]: 0%
Number of deaths/number of survivals (mice; mouse, in vivo, po, 500 mg/kg): 0/5
Blood pressure [1]: 195 mmHg
Creatinine clearance [2]: 0.36 mL/min
Creatinine [2]: 1.6 mg/dL
Urea nitrogen [2]: 72 mg/dL
Average survival time [3]: 7.6 weeks

CCCCCN(Cc1ccc(C(=O)O)cc1)c1cc(C(=O)N2CCOCC2)ccc1N(C)C [Compound No. 252, 4-dimethylamino-3-[N-(4-carboxyphenyl)methyl]-n-amylaminobenzoic acid morpholide]
inhibition at 100 µM [4]: 34%
inhibition at 100 µM [5]: 0%
Number of deaths/number of survivals (mice; mouse, in vivo, po, 500 mg/kg): 0/5
Blood pressure [1]: 200 mmHg
Creatinine clearance [2]: 0.28 mL/min
Creatinine [2]: 1.7 mg/dL
Urea nitrogen [2]: 73 mg/dL
Average survival time [3]: 7.0 weeks

From patent US5739131A, “Benzene derivatives and pharmaceutical composition” (Kureha Chemical Industry Co., Ltd., priority 1994, dated 1998)
